Measured values from publication PMC11714206, “Massively Parallel Screening of Toll/Interleukin‐1 Receptor (TIR)‐Derived Peptides Reveals Multiple Toll‐Like Receptors (TLRs)‐Targeting Immunomodulatory Peptides” (Advanced Science, 2024).
Blank lines part the entries; values can stand above or below the compound they belong to. Where no end group is shown, it is not given here.

What was measured:
Serum stability analysis = format: in vitro ADME; details: human serum (Sigma H4522), 1 mM peptide in water mixed 1:1 (v/v) with serum, 37 °C, SDS‐PAGE, Coomassie band intensity (ImageJ); for half-life at 0.5 mM: 0–72 h
Procedure: Figure 6 Molecular characterization of TDIPs. (a) Co‐immunoprecipitation of TIR domains and TDIPs. Lysates of HEK293T cells expressing FLAG‐tagged TIR domains were incubated with the indicated TDIPs. Peptides were blotted with an antibody against the penetratin sequence. Created with BioRender.com. (b) Fluorescence polarization binding assay of the Cy5‐labeled TDIP1 against TIR domains of Myd88, TRAM, and MAL. Error bars represent ± SD (n = 3). (c) Human serum stability (half‐life) of the TDIPs was measured. The percentage of the remaining peptide was quantified up to 72 h. (d) The secondary structure of the selected TDIPs was determined by circular dichroism. […] (e) TDIP1 and its truncates were compared for inhibition of TLR4 signaling by using HEK‐Blue^TM hTLR4 cells. Data are presented as mean ± SD. ^****p < 0.0001. All significance is versus the LPS‐treated CP group. n.s., not significant.
The first step of the serum stability analysis was performed as previously described^[ [60] ^] with a minor modification. Human serum (Sigma‐Aldrich, H4522) was thawed on ice and centrifuged at 18 000 × g for 10 min at 4 °C to remove lipids. The supernatant was incubated at 37 °C for 15 min to activate the proteins. Each peptide was prepared at a concentration of 1 mM in ultrapure water and mixed with human serum in a 1:1 (v/v) ratio. The mixed solutions were incubated at 37 °C for various periods (0, 1, 3, 6, 12, 24, 48, and 72 h). A mixture of ultrapure water and human serum was used as the blank. A total of 3 µg of the peptide was loaded on an SDS–polyacrylamide gel and stained with InstantBlue Coomassie Protein Stain (Abcam). The intensity of the remaining peptide bands was quantified using ImageJ and plotted.

MAL^TIR = biological target: T1, MAL^TIR (Homo sapiens, UniProt P58753); assay: T‐Surf phage library (P8 and P3) selection against MAL^TIR, four rounds, NGS read counts; format: binding; details: for P3_MAL Rank (after) / P3_MAL Rank (before): P3 library
T1 construct: MAL (residues 79–221); 6xHis; made in house; host or cells: E. coli BL21 (DE3)
Summary of the method: (§1)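 Read counts come from NGS of phage pools enriched over four selection rounds on the plate‐coated TIR domain (5 µg mL^−1). Each round: 1 h phage binding at room temperature after 0.2% BSA blocking, Tween washes, acid elution, amplification in E. coli TG1 with M13KO7 helper.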

MyD88^TIR = biological target: T2, MyD88^TIR (Homo sapiens, UniProt Q99836); assay: T‐Surf phage library (P8 and P3) selection against MyD88^TIR, four rounds, NGS read counts; format: binding; details: for P3_MyD88 Rank (after) / P3_MyD88 Rank (before): P3 library; for Rank (after): P3_MyD88: rank by count after grouping; for Rank (before): P3_MyD88: rank by count before grouping; for Population: P3_MyD88 pool: P3 T-Surf phage library, 4th round of selection against MyD88 TIR, share of NGS reads
T2 construct: MyD88 (residues 148–296); 6xHis; made in house; host or cells: E. coli BL21 (DE3)
Summary of the method: as §1

[1] = test system: human conjunctival epithelial cells and rabbit cornea; details: cited from earlier work
[2] = parameters: method as in PMID 19661804; details: possibly due to late administration; cited from earlier work
Excerpt: Treatment of macrophage cells with synthetic TDIPs containing a cell‐penetrating moiety suppressed TLR4‐dependent inflammatory pathways in a dose‐dependent manner. Moreover, the selected TDIPs exerted broad‐spectrum TLR‐inhibitory effects by inhibiting interactions between TIR domain‐containing proteins, which enhanced the therapeutic efficacy in the murine sepsis model. Although we applied TDIP simultaneously with LPS, the timing of TLR inhibitor administration remains a critical consideration. ...

[3] = P3_MAL: rank by count after grouping
[4] = P3_MAL: rank by count before grouping
[5] = selection against MyD88 TIR, rank by count after grouping
[6] = selection against MyD88 TIR, rank by count before grouping

T1 sequence (P58753 79-221): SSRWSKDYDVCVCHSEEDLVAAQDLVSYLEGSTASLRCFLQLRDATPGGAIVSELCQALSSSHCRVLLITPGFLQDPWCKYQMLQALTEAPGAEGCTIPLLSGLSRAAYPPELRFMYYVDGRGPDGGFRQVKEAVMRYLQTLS
T2 sequence (Q99836 148-296): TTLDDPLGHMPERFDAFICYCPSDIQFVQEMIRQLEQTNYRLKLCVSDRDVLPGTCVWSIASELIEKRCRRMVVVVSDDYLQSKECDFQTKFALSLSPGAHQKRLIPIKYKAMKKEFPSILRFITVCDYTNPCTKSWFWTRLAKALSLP

P3_MAL Rank (after) (MAL^TIR; 4R selection against MAL, rank after grouping): 662
P3_MAL Rank (before) (MAL^TIR; 4R selection against MAL, rank before grouping): 1520
P3_MyD88 Rank (after) (MyD88^TIR; 4R selection against MyD88, rank after grouping): 601
P3_MyD88 Rank (before) (MyD88^TIR; 4R selection against MyD88, rank before grouping): 1609
Compound: YLKWKEALHQFHSWV

P3_MAL Rank (after) (MAL^TIR; selection against MAL TIR, rank by count after grouping): 251
P3_MAL Rank (before) (MAL^TIR; selection against MAL TIR, rank by count before grouping): 1443
Rank (after) (MyD88^TIR): 120
Rank (before) (MyD88^TIR): 1532
Compound: YAFTGHLQRYLVHRGV

P8_MAL Rank (after) (MAL^TIR; P8 library, selection against MAL TIR, rank by count after grouping): 227
P8_MAL Rank (before) (MAL^TIR; P8 library, selection against MAL TIR, rank by count before grouping): 799
P3_MyD88 Rank (after) (MyD88^TIR; selection against MyD88, rank after grouping): 502
P3_MyD88 Rank (before) (MyD88^TIR; selection against MyD88, rank before grouping): 1556
Compound: YASSSWALDELLRILY

Rank (after) (MAL^TIR; [3]): 143
Rank (before) (MAL^TIR; [4]): 415
P3_MyD88 Rank (after) (MyD88^TIR; [5]): 269
P3_MyD88 Rank (before) (MyD88^TIR; [6]): 1069
Compound: LKWGDPYFGANCVMR

Rank (after) (MAL^TIR; [3]): 123
Rank (before) (MAL^TIR; [4]): 329
Population (MyD88^TIR): 0.00495%
Compound: LKWGYPWFWDRLRFA

Population (MAL^TIR; P3_MAL pool: P3 T-Surf phage library, 4th round of selection against MAL TIR, share of NGS reads): 0.00376%
Rank (after) (MAL^TIR; [3]): 112
Rank (before) (MAL^TIR; [4]): 177
Population (MyD88^TIR): 0.00437%
Compound: KEVEGWRDALTAAANLSGW

Rank (after) (MAL^TIR; [3]): 429
Rank (before) (MAL^TIR; [4]): 3263
Rank (after) (MyD88^TIR): 407
Rank (before) (MyD88^TIR): 3358
Compound: NGHESEIIKEIWIPL

Rank (after) (MAL^TIR; P8_MAL: rank by count after grouping): 105
Rank (before) (MAL^TIR; P8_MAL: rank by count before grouping): 584
Population (MyD88^TIR): 0.00291%
Compound: YTALTNSGFHTFRDND

More lines, now with the values behind:

Compound: RQIKIWFQNRRMKWKKLFFWESLKQLLRSDGR [TDIP6]
remaining peptide after 48 h of incubation in human serum (Serum stability analysis; 48 h): up to 50%

Compound: RQIKIWFQNRRMKWKKTFLGHLYNALVQAGIH [TDIP5]
half-life at 0.5 mM (Serum stability analysis): ~6 h

Compound: penetratin
cellular and tissue toxicity compared with other CPPs such as TAT and polyarginine [1]: lower cellular and tissue toxicity
cellular uptake [1]: excellent cellular uptake

Compound: YTALTNSGFHTFREM
P3_MAL Rank (after) (MAL^TIR; selection against MAL, rank after grouping): 500
P3_MAL Rank (before) (MAL^TIR; selection against MAL, rank before grouping): 1548
P3_MyD88 Rank (after) (MyD88^TIR; [5]): 213
P3_MyD88 Rank (before) (MyD88^TIR; [6]): 1675

Compound: CCCCCC/C=C\CCCCCCCCCC(=O)N[C@H]1[C@H](OC[C@H]2O[C@H](OP(=O)(O)O)[C@H](NC(=O)CC(=O)CCCCCCCCCCC)[C@@H](OCCCCCCCCCC)[C@@H]2O)O[C@H](COC)[C@@H](OP(=O)(O)O)[C@@H]1OCC[C@@H](CCCCCCC)OC [Eritoran tetrasodium]
outcome in clinical trials [2]: failed in clinical trials

Compound: KEVEGWRDALTKVANLV
Rank (after) (MAL^TIR; [3]): 134
Rank (before) (MAL^TIR; [4]): 489
Population (MyD88^TIR): 0.00349%

Compound: RQIKIWFQNRRMKWKKLVAHEISKKMKIFATI [TDIP20]
half-life at 0.5 mM (Serum stability analysis): < 1 h
